One experiment addresses CFTR (Homo sapiens, UniProt P13569). To be noted: literature; depending on cell type and membrane potential; read-out: IC50 for CFTR chloride conductance block; cited from earlier work.
The target in the next experiment is T1, human wildtype CFTR (Homo sapiens, UniProt P13569).
T1 construct: expressed in transfected cells; host or cells: Fischer rat thyroid (FRT) cells
As to the kind of experiment: Fluorescence platereader assay of CFTR-mediated iodide influx (YFP quenching) in FRT cells. Type of experiment: cell-based. To be noted: FRT, Table 2, screening; for inhibition at 5 µM: read-out: % Inhibition at 5 μM; for inhibition at 25 µM: read-out: % Inhibition at 25 μM. The gist of the method:
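Fischer rat thyroid cells co-expressing human wildtype CFTR and the YFP-H148Q/1152L halide sensor were seeded at 20,000 cells per well in 96-well black-walled plates and assayed 48 h later at confluence. After PBS washes and a 15 min incubation, CFTR was maximally activated with an agonist mixture. Fluorescence was recorded for 2 s before and 10 s after adding 160 μL iodide-substituted PBS, and iodide influx rates came from non-linear regression.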

Structures are written as SMILES.

T1 sequence (P13569 whole entry): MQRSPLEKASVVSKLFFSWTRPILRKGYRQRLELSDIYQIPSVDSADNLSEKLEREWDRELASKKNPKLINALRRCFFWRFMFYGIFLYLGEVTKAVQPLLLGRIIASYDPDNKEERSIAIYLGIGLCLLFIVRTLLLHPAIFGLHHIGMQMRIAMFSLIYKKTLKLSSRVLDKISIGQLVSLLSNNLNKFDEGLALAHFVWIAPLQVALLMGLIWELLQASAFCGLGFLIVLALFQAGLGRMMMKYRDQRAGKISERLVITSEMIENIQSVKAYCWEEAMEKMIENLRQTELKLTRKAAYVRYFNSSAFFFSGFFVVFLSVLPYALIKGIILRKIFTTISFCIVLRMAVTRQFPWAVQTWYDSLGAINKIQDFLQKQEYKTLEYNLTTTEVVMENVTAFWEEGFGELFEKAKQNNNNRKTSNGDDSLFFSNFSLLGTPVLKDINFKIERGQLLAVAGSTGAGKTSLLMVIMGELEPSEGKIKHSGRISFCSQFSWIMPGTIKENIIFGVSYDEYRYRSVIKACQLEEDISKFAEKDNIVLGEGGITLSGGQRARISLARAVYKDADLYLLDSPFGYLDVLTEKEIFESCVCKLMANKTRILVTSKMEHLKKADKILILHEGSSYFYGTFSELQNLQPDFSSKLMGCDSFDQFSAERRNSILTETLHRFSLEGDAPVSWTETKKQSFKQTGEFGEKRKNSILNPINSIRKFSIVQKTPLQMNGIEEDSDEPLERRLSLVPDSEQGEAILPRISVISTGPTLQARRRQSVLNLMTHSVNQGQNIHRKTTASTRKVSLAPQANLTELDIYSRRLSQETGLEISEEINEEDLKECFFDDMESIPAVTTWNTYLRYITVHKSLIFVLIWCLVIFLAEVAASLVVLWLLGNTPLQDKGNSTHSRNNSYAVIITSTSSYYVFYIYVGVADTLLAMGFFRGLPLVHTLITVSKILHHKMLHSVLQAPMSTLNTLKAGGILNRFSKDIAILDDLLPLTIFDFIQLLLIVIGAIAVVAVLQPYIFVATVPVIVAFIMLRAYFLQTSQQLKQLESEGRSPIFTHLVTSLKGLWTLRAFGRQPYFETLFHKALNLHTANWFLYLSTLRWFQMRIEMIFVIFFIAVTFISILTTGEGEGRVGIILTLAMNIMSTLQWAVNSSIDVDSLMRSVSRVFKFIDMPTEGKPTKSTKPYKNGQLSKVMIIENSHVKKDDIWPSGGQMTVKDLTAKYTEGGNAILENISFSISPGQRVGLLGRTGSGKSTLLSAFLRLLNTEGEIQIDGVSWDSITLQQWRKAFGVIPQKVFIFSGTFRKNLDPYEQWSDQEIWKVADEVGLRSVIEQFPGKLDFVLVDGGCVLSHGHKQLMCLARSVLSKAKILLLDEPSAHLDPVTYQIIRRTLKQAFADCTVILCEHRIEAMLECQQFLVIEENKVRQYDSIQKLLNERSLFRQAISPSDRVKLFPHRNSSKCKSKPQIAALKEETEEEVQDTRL
Sequence of CFTR (P13569 whole entry, species assumed): as the sequence (P13569 whole entry) above

With `O=C(CNc1ccc2ccccc2c1)N/N=C/c1cc(Br)c(O)c(Br)c1O` [GlyH-101], the IC50 on CFTR was around 5 µM.

Consider `COc1ccc(-c2c3c(=O)n(C)c(=O)n(C)c3c3n2-c2ccccc2NC3c2cccc(F)c2F)cc1` (stereo not shown) [PPQ-252, 7,9-Dimethyl-11-(4-methoxyphenyl)-6-(2,3-difluorophenyl)-5,6-dihydro-pyrimido[4′,5′-3,4]pyrrolo[1,2-a]quinoxaline-8,10-(7H,9H)-dione], for which, on human wildtype CFTR, the inhibition at 5 µM was below 10% and the inhibition at 25 µM was determined as 78%.

For the compound `Cn1c(=O)c2c(-c3ccccc3)n3c(c2n(C)c1=O)C(c1ccc2c(c1)OCO2)Nc1ccccc1-3` (stereo not shown) [PPQ-301, 7,9-Dimethyl-11-phenyl-6-(1,3-benzodioxol-5-yl)-5,6-dihydro-pyrimido[4′,5′-3,4]pyrrolo[1,2-a]quinoxaline-8,10-(7H,9H)-dione], at human wildtype CFTR, the inhibition at 5 µM came out at 28% and the inhibition at 25 µM was 58%.

As to `Cc1cccc(-c2c3c(=O)n(C)c(=O)n(C)c3c3n2-c2ccccc2NC3c2ccc3c(c2)OCO3)c1` (stereo not shown) [PPQ-302, 7,9-Dimethyl-11-(3-methylphenyl)-6-(1,3-benzodioxol-5-yl)-5,6-dihydro-pyrimido[4′,5′-3,4]pyrrolo[1,2-a]quinoxaline-8,10-(7H,9H)-dione], on human wildtype CFTR, the inhibition at 5 µM is 26% and the inhibition at 25 µM was found to be 63%.

Values taken from US8609661B2, “Pyrimido-pyrrolo-quinoxalinedione inhibitors of cystic fibrosis transmembrane conductance regulator protein and uses therefor” (The Regents of the University of California, priority 2009, dated 2013).
